The source of these data is US20150352072A1, “ZINC N-ACETYL TAURINATE FOR THE TREATMENT OF PROSTATE CANCER” (TRI-INOV, priority 2011, published 2015).

Entries after “also recorded” stand apart in the source; their conditions may differ.

Common to all, as to type: cell-based
The subject of one series is Nrf-2 protein. In words: Nrf-2 protein by Western blotting in LNCaP cells. The settings on record: 48 hours, standardized relative to actin. Here is the method:
(§1) The cells were lysed in the buffer for the radioimmunoprecipitation test, having the composition hereinafter:
(§2) The proteins were then separated by SDS-PAGE and were transferred onto a Hybond-P PVDF membrane (Amersham Biosciences, Pantin, France). The membranes were incubated for 1 hour at ambient temperature with a blocking solution consisting of skimmed milk powder at 5% in TBS-T buffer (50 mM Tris-HCl, pH 8.0, 150 mM NaCl, Tween-20 at 0.1%).
(§3) The membranes were then incubated with rabbit primary antibodies directed against cyclin-D1 (No. 29785); the markers Bax (No. 1063.1) and BCL-2 (No. 1017-1); Nrf-2 (No. 2178-1) and SOD-1 (No. 2018-1) all sold by the company Epitomies under the references indicated above, and the A2103 anti-actin, N-terminal, antibodies sold by the company Sigma-Aldrich (Saint Quentin Fallavier, France) in the blocking solution overnight at 4° C. The said antibodies were diluted in accordance with the manufacturer's instructions to 1/1000. The anti-actin antibodies served to standardize the membranes. […]
(§4) LNCaP cells were incubated with a range of ATA-Zn concentrations for 48 hours. The amount of Nrf-2 and SOD-1 proteins were then measured by Western blotting. The quantification was carried out with the “Quantity One” software and the results were standardized relative to the actin data. […]
Background: Immunoblotting shows a protein as a band on a membrane.

The next series concerns Bax/Bcl-2 ratio. In words: Bax/Bcl-2 mRNA ratio by RT-Q-PCR in LNCaP cells. Particulars: 10^−5-10^−9M, 48 hours. As to the method:
(§5) For the dose-dependence studies, the cells (50% confluent) were treated with ATA-Zn at the concentrations of 10^−3, 10^−4, 10^−5, 10^−6, 10^−7, 10^−8 and 10^−9M, for 24 hours, 48 hours and 72 hours in their respective growth medium. After 48 h of treatment, the cells were harvested and counted in the pellet. In parallel, the cell lysates were prepared in order to extract the mRNA for RT-Q-PCR and Western blotting.
(§6) The mRNA was extracted from the cells in culture using the “SV Total RNA isolation” kit from the company Promega and according to the procedure hereinafter:
(§7) A reverse transcription of the RNA was then carried out using the ready to go kit (kit known as “Ready To Go, You Prime First Strand Beads” commercially available from Amersham Biosciences, Piscataway, United States) in accordance with the supplier's instructions using 3 μg of RNA.
(§8) The “LightCycler-Fast Start DNA Master SYBR Green I” test commercially available from Roche Diagnostics, Meylan, France, was used to quantify the gene expression by means of a real-time polymerase chain reaction (PCR). […]
LNCaP cells were incubated with various concentrations of ATA-Zn (10^−5-10^−9M) for 48 hours. The change in the synthesis of Bax mRNA and Bcl-2 mRNA was measured by RT-Q-PCR according to the procedure described previously in the section entitled “Materials and methods”.

In series [1] the test system is Normal prostate epithelial cells (PrECs). The series is described as follows: Cell count by Trypan blue exclusion, normal PrECs. Here is the method: Normal prostate epithelial cells (PrECs) and the PrEC growth medium sold by the company Cambrex Bioscience (Walkersville, Md.) were used by way of comparison.
as §5
(§9) In order to evaluate the number of cells, the cell pellets were mixed with 1 ml of their respective medium and the cell viability and the number of cells were evaluated by means of a Trypan blue exclusion test.

A further series concerns SOD-1 protein. The series is described as follows: SOD-1 protein by Western blotting in LNCaP cells. Particulars: 48 hours, standardized relative to actin. As to the method: as §1, §2, §3, §4
Series [2] relates to LNCaP prostate cancer cell line. In words: Cell count by Trypan blue exclusion, LNCaP cancer cells. As to the method: The LNCaP prostate cancer cell line, deposited in the ATCC under No. CRL-1740, was used.
The cell culture medium was RPMI 1640 complete growth medium (ATCC No. 30-2001), containing 2 mM L-glutamine, 10 mM HEPES and 1.0 mM sodium pyruvate, to which the following were added: • 1) sodium carbonate and glucose in amounts sufficient to obtain a sodium carbonate concentration of 20 mM and a glucose concentration of 25 mM, • 2) […] by volume of a mixture of antibiotics (10 μg/ml of gentamycin, 100 IU of penicillin, 100 μg/ml of streptomycin), and • 3) 10% by volume of fetal calf serum.
as §5, §9
The viable cells and the non-viable cells were counted after Trypan blue exclusion. […] The mortality evolved in the opposite direction, with a maximum increase of about 50%. The concentration of 10^−3M was toxic. The results obtained are reported on the graphs of FIGS. 1a and 1b, which give the percentage of cancer cells relative to the control (cell culture without ATA-Zn) as a function of the concentration of ATA-Zn. FIG. 1a relates to the viable cells and FIG. 1b relates to the non-viable cells.

The subject of another series is Bax and Bcl-2. In words: Bax/Bcl-2 mRNA by RT-Q-PCR in PrECs. Particulars: Bax and Bcl-2 base amount too low for PCR amplification, a conclusion. Here is the method: as §5, §6, §7
(§10) The “LightCycler-Fast Start DNA Master SYBR Green I” test commercially available from Roche Diagnostics, Meylan, France, was used to quantify the gene expression by means of a real-time polymerase chain reaction (PCR). The PCR (program: 95° C., 30 seconds; 40 cycles: 95° C., 5 seconds; 60° C., 35 seconds) was carried out using a “Mastercycler ep realplex” apparatus sold by the company Eppendorf, Hamburg, Germany.
(§11) The expression of the target gene was standardized relative to the GAPDH housekeeping gene. […]

For series [3], the system named is cyclin-D1 mRNA. In words: Cyclin-D1 mRNA by RT-Q-PCR in LNCaP cells. The settings on record: 10^−5-10^−9M, after 24 hours of exposure. As to the method:
as §5, §6, §7, §8
The amount of cyclin-D1 mRNA was measured by RT-Q-PCR according to the procedure previously described in the section entitled “Materials and methods”. […]

For series [4], the system named is cyclin-D1 mRNA. The series is described as follows: Cyclin-D1 mRNA by RT-Q-PCR in normal cells. Particulars: normal cells (PrECs), 24 hours. As to the method: as §5, §6, §7, §10, §11

Take zinc N-acetyltaurinate [ATA-Zn]: the Nrf-2 protein entry with Nrf-2 protein was “repressed”. The “Bax/Bcl-2 ratio (mRNA)” value in the series on Bax/Bcl-2 ratio is reported as “greatly increased”. The “toxicity at the dose of 10^−3M” value in series [1] (PrECs, 10^−3M) was “toxic”. Further, the “state of cells after 72 hours with 10^−3M” value in series [1] (PrECs, 10^−3M, 72 hours of incubation) is reported as “completely dead”. In series [1] (normal PrECs, up to 72 hours of incubation, doses below 10^−3M), the “effect on the number of cells” value is listed as “no effect”. Also, the “level of the SOD-1 protein” value with SOD-1 protein was “decreases”. For the same substance, the “antiproliferative effect / number of cells” value in series [2] (LNCaP cancer cells of the prostate, 48 hours, each dose) is on record as “antiproliferative effect; also recorded: reduced the number of cells at each dose”. Further, in series [2] (LNCaP, 10^−3M), the “toxicity at the concentration of 10^−3M” value is listed as “toxic”. The “maximum reduction of the number of cells” value in series [2] (LNCaP, 48 hours of incubation, highest concentration (10^−4), relative to control) amounted to 25%. Further, the “maximum increase of mortality (non-viable cells)” value in series [2] (LNCaP, 48 hours of incubation, relative to control) was “about 50%”. The “concentrations at which nontoxic” value in series [2] (general statement on the in vitro cell tests) was “below 10^−3 M”. In addition, the “apoptosis in normal PrECs” value in the series with Bax and Bcl-2 was “not influenced”. Moreover, the “synthesis of cyclin-D1 mRNA” value in the series on cyclin-D1 mRNA [3] is “reduces”; with cyclin-D1 mRNA [4] it was “no effect”.
